The results in this text go back to patent US20160058829A1, “ANTI-FIBROTIC PEPTIDES AND THEIR USE IN METHODS FOR TREATING DISEASES AND DISORDERS CHARACTERIZED BY FIBROSIS” (Thrasos Innovation, Inc., priority 2011, published 2016).

“Also recorded” adds a separate entry of the source. Read-outs that look alike come from different tables or passages of the source. Positions of bridges follow the written chain, without caps; N, C: chain ends.

The subject of series [1] is Streptozotocin-induced diabetic CD-1 mice. Description: STZ-induced diabetic nephropathy study (THR-123 month 5-6, BMP-7 month 1-6). The note with it: for net increase in FSP1 (mesenchymal tissue) at six months versus normal animals: BMP7 five months, SEQ ID NO: 1 final month, untreated 27 and 29 times; for interstitial fibrosis (collagen accumulation, Masson's trichrome): THR-123 5 mg/kg/day oral; for increase in BUN level relative to normal animals: untreated 85% at 5 months, 94% at 6 months. It is filed as in vivo. The protocol: FIG. 17 depicts the STZ experimental protocol behind the study discussed in Example 2. […] Mice were given a single intraperitoneal injection of Streptozotocin (STZ) in sodium citrate buffer (pH 4.5) at a dose of 200 mg/kg. Blood glucose was measured by tail vein sampling using the glucose oxidase enzymatic test (Medisense glucometer, Abbott Laboratories, Bedford, Mass.). Diabetic nephropathy was evaluated in groups of mice killed at the end of 5 or 6 months (vehicle control groups) or 6 months (THR123 or BMP-7 group) after STZ injection. A group of STZ injected mice received oral administration of Thrasos compound daily at a dose of 5 mg/kg body weight for a month, from month 5 to month 6 after STZ injection. BMP-7 was administered intraperitoneally at a dose of 300 μg/kg body weight from month 1 to month 6.
Analysis of fibrosis in the H&E and Masson's trichrome stain in FIG. 18 through 22 from the mouse STZ study outlined in FIG. 17. Using the same image color analysis method used above to quantitate E-cadherin fluorescence for the in vitro EMT experiments, the images were quantitated, and the results shown in FIG. 23.
Eight weeks old male CD-1 mice are used all the diabetic experiment. Mice are performed single intraperitoneal (i.p.) injection of streptozotocin (STZ: 200 mg/Kg). Induction of diabetes is defined as blood glucose level >16 mM by 2 weeks after STZ injection. One month after induction of diabetes, mice were separated into three groups (BMP7, vehicle and non-treatment) and BMP7 (i.p. 300 μg/Kg/every other day) or vehicle injection was initiated. Five months after induction of diabetes, THR-123 (p.o. 5 mg/Kg/day) administration is initiated in diabetic mice. Mice are sacrificed at 5 (before the treatment) or 6 months after induction of diabetes.

Another series concerns the target T1, ALK2 (Homo sapiens, UniProt Q04771).
T1 sequence (Q04771 21-123 limits assumed): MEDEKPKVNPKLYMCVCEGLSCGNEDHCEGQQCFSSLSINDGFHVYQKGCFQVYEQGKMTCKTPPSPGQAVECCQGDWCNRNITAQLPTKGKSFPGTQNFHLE
The series can be described thus: BMP type I receptor binding, ALK2 ECD. The protocol: (§1) FIG. 31 provides a table indicating a comparison between THR-123 (SEQ ID NO: 1) and BMP-7 for binding to Type I and Type II BMP receptors. Like BMP-7, THR-123 binds to both ALK2 and ALK3 (type I) and BMPR-II (type II) BMP receptors. However, BMP-7, but not THR-123 binds to ALK6 (type I) receptor.
First, specific affinity of the extra cellular domains (ECD) of the several type I receptors of BMPs to THR-123 was analyzed. Binding of cold BMP7 to immobilized receptor ECDs was determined by competition with ^125I-labeled BMP7 and analyzed by Scatchard analysis to determine effective dissociation constants of BMP7 for each of the receptor ECDs. To obtain an estimate of the effective dissociation constant of THR-123 for a particular receptor ECD, the dissociation constant for cold BMP7 was multiplied by the ratio of the ED50 of THR-123 to the ED50 for cold BMP7.

The next series addresses T2, BMPR-II (Homo sapiens, UniProt Q13873).
T2 sequence (Q13873 27-1038): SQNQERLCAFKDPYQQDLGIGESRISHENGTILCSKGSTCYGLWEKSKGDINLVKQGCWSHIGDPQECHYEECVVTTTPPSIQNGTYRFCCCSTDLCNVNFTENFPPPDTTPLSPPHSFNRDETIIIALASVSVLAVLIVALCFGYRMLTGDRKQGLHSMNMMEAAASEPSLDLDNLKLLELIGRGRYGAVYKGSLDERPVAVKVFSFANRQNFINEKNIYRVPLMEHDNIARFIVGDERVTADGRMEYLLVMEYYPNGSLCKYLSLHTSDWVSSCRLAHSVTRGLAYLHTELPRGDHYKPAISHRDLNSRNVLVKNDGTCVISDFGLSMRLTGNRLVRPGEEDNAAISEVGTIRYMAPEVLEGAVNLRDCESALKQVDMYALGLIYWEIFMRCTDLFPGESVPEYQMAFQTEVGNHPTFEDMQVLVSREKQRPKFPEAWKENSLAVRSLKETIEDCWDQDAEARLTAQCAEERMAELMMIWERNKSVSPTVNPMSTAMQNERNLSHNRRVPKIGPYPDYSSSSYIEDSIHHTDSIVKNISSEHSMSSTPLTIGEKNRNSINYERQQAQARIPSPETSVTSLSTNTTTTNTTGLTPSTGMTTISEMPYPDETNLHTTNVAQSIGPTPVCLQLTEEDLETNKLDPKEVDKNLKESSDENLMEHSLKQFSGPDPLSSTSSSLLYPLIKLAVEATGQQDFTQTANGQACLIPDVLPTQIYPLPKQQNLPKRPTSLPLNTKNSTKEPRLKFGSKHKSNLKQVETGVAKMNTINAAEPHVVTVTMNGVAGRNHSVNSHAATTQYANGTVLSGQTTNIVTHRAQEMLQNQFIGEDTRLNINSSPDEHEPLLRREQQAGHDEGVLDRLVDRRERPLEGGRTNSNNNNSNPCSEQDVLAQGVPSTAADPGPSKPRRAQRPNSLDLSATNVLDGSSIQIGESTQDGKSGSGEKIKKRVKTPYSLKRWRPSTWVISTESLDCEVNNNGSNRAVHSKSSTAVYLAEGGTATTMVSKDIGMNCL
Description: BMP type II receptor binding.
From the text: as §1

Series [2] has as its system pluripotent mesenchymal stem cells (C3H10T1/2). The series can be described thus: Osteoblastic differentiation of pluripotent stem cells (alkaline phosphatase staining). The series is classed as cell-based, Murine. The note with it: BMP-7 2 ug/mL. The source says:
Murine pluripotent mesenchymal stem cells (C3H10T1/2) treated with medium alone, BMP-7 or THR-123 were stained for alkaline phosphatase activity, an osteogenic marker. No staining of cells was observed when treated with medium alone (control, panel FIG. 41A) or with THR-123 (panel FIG. 41B). […] Cells were counterstained with hematoxylin.

The mark [3] stands for this setting: THR-123 month 5-6, BMP-7 month 1-6.
The mark [4] stands for this setting: THR-123 month 5-6, BMP-7 month 1-6, listed as THR-123.

“(H)-CYFDDSSNVLCKKYRS-(OH) (H-CYFDDSSNVLCKKYRS-OH; disulfide 1-11; SMILES CC(C)C[C@@H]1NC(=O)[C@H](C(C)C)NC(=O)[C@H](CC(N)=O)NC(=O)[C@H](CO)NC(=O)[C@H](CO)NC(=O)[C@H](CC(=O)O)NC(=O)[C@H](CC(=O)O)NC(=O)[C@H](Cc2ccccc2)NC(=O)[C@H](Cc2ccc(O)cc2)NC(=O)[C@@H](N)CSSC[C@@H](C(=O)N[C@@H](CCCCN)C(=O)N[C@@H](CCCCN)C(=O)N[C@@H](Cc2ccc(O)cc2)C(=O)N[C@@H](CCCNC(=N)N)C(=O)N[C@@H](CO)C(=O)O)NC1=O) [SEQ ID NO: 1]”: in series [1], the “net increase in FSP1 (mesenchymal tissue) at six months versus normal animals” value worked out at 2 times and the “increase in BUN level relative to normal animals” value amounted to 17%. The “interstitial fibrosis (collagen accumulation, Masson's trichrome)” value in series [1] (month 5 to 6, listed as THR123, 5 mg/kg/day) is recorded as “reduced renal fibrosis”. Also, the “interstitial fibrosis (collagen accumulation, Masson's trichrome)” value in series [1] (month 5 to 6, listed as THR-123, 5 mg/kg/day) is on record as “lower than it was at 5 months; also recorded: markedly reduced”. The glomerular surface area entry in series [1] (setting [3]) is on record as “little effect”. For the same molecule, the relative interstitial volume result in series [1] (THR-123 month 5-6, BMP-7 month 1-6, listed as THR123) is listed as “decreased interstitial volume”. For the same molecule, in series [1] (setting [4]), the “BUN levels / renal function” value is listed as “reversed renal dysfunction; also recorded: dropped to those of control animals”; the “damaged tubules / tubular atrophy” value is “inhibited tubular atrophy and interstitial volume increase; also recorded: reversed tubular atrophy and interstitial volume expansion; also recorded: markedly reduced”; the mesangial matrix expansion result is “inhibited mesangium expansion; also recorded: reversed mesangial matrix expansion; also recorded: significantly reduced”; the relative interstitial volume entry is recorded as “markedly reduced”. For the same molecule, in series [1] (mouse, in vivo), the “EMT program (FSP1 and E-cadherin double positive tubules)” value was “inhibited EMT program”; the “macrophage infiltration (Mac-1)” value is on record as “significantly reduced the infiltration by macrophages”; the “phospho-Smad1/5 accumulation in kidney” value was “increased accumulation of phospho-Smad1/5”. The “FSP-1 marker concentration relative to levels at 5 and 6 months” value in series [1] (one month treatment, month 5 to 6) was “less than 1/10”. For the same molecule, the “increase in mesangial matrix at 6 months” value in series [1] (untreated 64% at 5 months, 104% at 6 months) is listed as 37%. Moreover, the “increase in BUN level relative to normal animals” value in series [1] (listed as THR-123) is listed as 12%. Also, the “binding to ALK2” value with ALK2 (listed as THR-123) was “to a small extent; also recorded: binds”. Moreover, in the series with BMPR-II, the “binding to BMPR-II” value is reported as “binds”. Moreover, in series [2], the “osteoblastic differentiation (alkaline phosphatase staining)” value is “failed to induce osteoblastic differentiation”.

B1: BMP-7: bone morphogenetic protein-7; recombinant human BMP7, positive control (protein)
chain: STGSKQRSQNRSKTPKNQEALRMANVAENSSSDQRQACKKHELYVSFRDLGWQDWIIAPEGYAAYYCEGECAFPLNSYMNATNHAIVQTLVHFINPETVPKPCCAPTQLNAISVLYFDDSSNVILKKYRNMVVRACGCH
Take B1: in series [1], the “net increase in FSP1 (mesenchymal tissue) at six months versus normal animals” value was determined as 3 times and the “increase in BUN level relative to normal animals” value stood at 2%. For the same molecule, in series [1] (setting [3]), the “BUN levels / renal function” value is “reversed renal dysfunction; also recorded: dropped to those of control animals”; the “damaged tubules / tubular atrophy” value was “inhibited tubular atrophy and interstitial volume increase”; the mesangial matrix expansion entry is given as “inhibited mesangium expansion; also recorded: significantly reduced”; the relative interstitial volume entry is given as “markedly reduced”. Moreover, the “damaged tubules / tubular atrophy” value in series [1] (THR-123 month 5-6, BMP-7 month 1-6, listed as BMP) is on record as “halts the progression”. The mesangial matrix expansion entry in series [1] (THR-123 month 5-6, BMP-7 month 1-6, listed as BMP7) is “unaffected”. For the same molecule, in series [1] (mouse, in vivo), the “EMT program (FSP1 and E-cadherin double positive tubules)” value was “inhibited EMT program”; the “macrophage infiltration (Mac-1)” value is “significantly reduced the infiltration by macrophages”. In the series with ALK2, the “binding to ALK2” value is “binds”. Besides, the “binding to BMPR-II” value in the series with BMPR-II is “binds”. Also, in series [2], the “osteoblastic differentiation (alkaline phosphatase staining)” value is recorded as “induced osteoblastic differentiation”.
